Some results are limits rather than exact numbers.

The IC50 is the midpoint of a concentration-inhibition curve.

The subject of experiment [1] is Homo sapiens. Put plainly: Effect on hemoglobin levels in stage 3 and 4 chronic kidney disease patient at 200 to 700 mg administered for 28 days measured on day 29 (reference value: 9.91 g/dl). The experiment is classed as functional.
In experiment [2] the test system is Homo sapiens. Put plainly: Increase in hemoglobin levels in stage 5D chronic kidney disease patient at 200 to 700 mg administered for 28 days measured on day 29 relative to control. The experiment is classed as functional.
The subject of experiment [3] is Homo sapiens. Put plainly: Increase in hemoglobin levels in stage 3, 4, 5 chronic kidney disease patient at 200 to 700 mg administered for 28 days measured on day 29 relative to control. The experiment is classed as functional.
For the next experiment, the target named is Egl nine homolog 1 (Homo sapiens, UniProt Q9GZT9). Put plainly: biochemical.
The target in a further experiment is Prolyl hydroxylase EGLN3 (Homo sapiens, UniProt Q9H6Z9). Put plainly: Inhibition of recombinant human HIF-PHD3 expressed in insect Sf9 cells using biotinyl-DLDLEMLAPYIPMDDDFQL as substrate after 60 mins by DELFIA.
A further experiment addresses Prolyl hydroxylase EGLN2 (Homo sapiens, UniProt Q96KS0). Put plainly: Inhibition of recombinant human HIF-PHD1 expressed in insect Sf9 cells using biotinyl-DLDLEMLAPYIPMDDDFQL as substrate after 60 mins by DELFIA.
Experiment [4] deals with Homo sapiens. The experiment in a line: Increase in hemoglobin levels in renal anemia patient at 40 to 120 mg administered for 4 weeks. The experiment is classed as functional.
Experiment [5] has as its system Homo sapiens. The experiment in a line: Increase in endogenous erythropoietin levels in human administered as single oral dose relative to control. The experiment is classed as functional.

Chain of Prolyl hydroxylase EGLN2 (Q96KS0 whole entry): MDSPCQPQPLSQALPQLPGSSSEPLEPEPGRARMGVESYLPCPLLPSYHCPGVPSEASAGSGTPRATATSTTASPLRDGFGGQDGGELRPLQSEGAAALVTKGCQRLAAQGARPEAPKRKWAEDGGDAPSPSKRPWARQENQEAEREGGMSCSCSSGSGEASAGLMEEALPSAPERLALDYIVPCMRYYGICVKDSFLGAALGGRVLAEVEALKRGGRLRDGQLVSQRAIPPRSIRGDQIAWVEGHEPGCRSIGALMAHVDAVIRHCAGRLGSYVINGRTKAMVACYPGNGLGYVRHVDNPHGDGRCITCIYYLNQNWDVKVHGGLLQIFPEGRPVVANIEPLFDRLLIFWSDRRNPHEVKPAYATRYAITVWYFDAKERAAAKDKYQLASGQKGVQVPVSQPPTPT
Chain of Egl nine homolog 1 (Q9GZT9 whole entry): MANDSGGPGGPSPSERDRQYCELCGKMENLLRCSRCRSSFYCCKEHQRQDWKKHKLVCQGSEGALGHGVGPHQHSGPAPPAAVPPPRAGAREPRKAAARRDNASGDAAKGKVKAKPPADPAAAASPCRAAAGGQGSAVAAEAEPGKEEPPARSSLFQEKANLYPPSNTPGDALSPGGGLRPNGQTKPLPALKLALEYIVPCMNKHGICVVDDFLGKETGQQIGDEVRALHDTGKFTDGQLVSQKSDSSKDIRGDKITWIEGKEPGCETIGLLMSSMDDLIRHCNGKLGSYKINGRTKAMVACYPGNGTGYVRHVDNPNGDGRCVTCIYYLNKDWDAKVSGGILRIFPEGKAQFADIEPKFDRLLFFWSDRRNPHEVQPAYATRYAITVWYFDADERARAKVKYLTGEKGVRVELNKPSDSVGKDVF
Chain of Prolyl hydroxylase EGLN3 (Q9H6Z9 whole entry): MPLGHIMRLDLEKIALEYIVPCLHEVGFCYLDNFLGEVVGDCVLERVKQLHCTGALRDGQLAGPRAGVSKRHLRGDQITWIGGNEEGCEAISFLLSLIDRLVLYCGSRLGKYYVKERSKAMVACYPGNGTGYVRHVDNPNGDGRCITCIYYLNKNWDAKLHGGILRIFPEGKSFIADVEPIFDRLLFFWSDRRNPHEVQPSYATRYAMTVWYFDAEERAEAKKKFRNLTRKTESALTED

In turn, `O=C(O)CNC(=O)c1ncc(-c2cccc(Cl)c2)cc1O` registered an Activity in the experiment with Homo sapiens [1] of 10.54 g/dL.

Turning to `O=C(O)CNC(=O)C1C(=O)N(C2CCCCC2)C(=O)N(C2CCCCC2)C1=O` [DAPRODUSTAT], the values for the Activity in the experiment on Homo sapiens [2] and with Homo sapiens [3] were 71 - 89% and 63 - 91%, respectively.

As for `Oc1c(-n2ccnn2)cnn1-c1cc(N2CCOCC2)ncn1` [MOLIDUSTAT SODIUM], the IC50 amounted to 280 nM against Egl nine homolog 1, 450 nM on Prolyl hydroxylase EGLN3 and 480 nM at Prolyl hydroxylase EGLN2.

As to `Cc1nc(C(=O)NCC(=O)O)c(O)c2ccc(Oc3ccccc3)cc12` [ROXADUSTAT], the Activity result with Homo sapiens [4] was “>=1 g/dl”. Further, the “fold change (FC)” value in the experiment on Homo sapiens [5] is on record as “<=8”.

The values are drawn from ChEMBL document CHEMBL3861947 (Medchemcomm, 2016).
